From patent US20240209028A1, “CNP COMPOUNDS” (priority 2022, published 2024) come the findings set out here.

The structures appear in SMILES notation. Starred links: 1 amine or outer side, 2 acyl side, 3 side chain; linkers in the order of their positions; H or OH if unused. Positions of bridges follow the written chain, without caps; N, C: chain ends. Residues, ends and D or L forms follow the SMILES beside them. *: point of attachment. C18 diacid = O=C(O)CCCCCCCCCCCCCCCCC(=O)*; γGlu = O=C(O)[C@H](CCC(=O)[*:2])N[*:1]; AEEA = NCCOCCOCC(=O)O

One series can be described thus: High-Molecular-Weight-Protein (HMWP) formation by SEC-UPLC. It counts as physicochemical. Conditions: increase over two weeks at 37° C., pH 4.0. The protocol: In order to assess the propensity of CNP compounds to form covalent dimers or oligomers when formulated the High-Molecular-Weight-Protein content of CNP compound formulations at pH 4.0 and 6.5 were determined.
Procedure: The relative amount of covalent HMWP was assessed using SEC-UPLC. SEC-UPLC was conducted using a Waters UPLC Protein BEH SEC column, 125A, 4.6×150 mm, 1.7 μm, with isocratic elution (0.3 M NaCl, 10 mM NaH2PO4 and 5 mM H3PO4, 50% (v/v) isopropanol, pH 2.4) with a flow rate of 0.3 mL/min, a column temperature at 50° C. with UV-detection at 215 nm. The total area of peaks eluting prior to the monomeric main peak was termed HMWP and given on a percentage scale relative to the total peptide peak area.
Results: HMWP Formation Following 2-Weeks Quiescent Incubation at 37° C.: Samples at pH 4.0 were prepared as described in Example 5 and the amount of HMWP was determined as described above. Samples were incubated for two weeks at 37° C. and the amount of HMWP was determined again. The increase in HMWP over two weeks incubation at 37° C. are reported in Table 10 (in case the incubation period deviated from two weeks the increase in HMWP was normalized to two weeks assuming a constant formation rate).
Samples at pH 6.5 were prepared as described in Example 5 and the amount of HMWP was determined as described above. Samples were incubated for two weeks at 37° C. and the amount of HMWP was determined again. The increase in HMWP over two weeks incubation at 37° C. are reported in Table 11 (in case the incubation period deviated from two weeks the increase in HMWP was normalized to two weeks assuming a constant formation rate).
A general note: Size exclusion chromatography separates by hydrodynamic size, large species first.
Consider `CC[C@H](C)[C@@H]1NC(=O)[C@H](CCCNC(=N)N)NC(=O)[C@H](CC(=O)O)NC(=O)[C@H](CC(C)C)NC(=O)[C@@H]2CCCN2C(=O)[C@H](CC(C)C)NC(=O)CNC(=O)[C@H](Cc2ccccc2)NC(=O)[C@@H](NC(=O)CNC(=O)[C@H](CO)NC(=O)[C@H](CO)NC(=O)[C@@H](NC(=O)CNC(=O)[C@H](CCCCN)NC(=O)[C@H](CCCCN)NC(=O)[C@H](CCC(N)=O)NC(=O)[C@H](C)NC(=O)CNC(=O)[C@H](Cc2c[nH]cn2)NC(=O)[C@H](Cc2ccc(O)cc2)NC(=O)[C@H](CCCCN)NC(=O)[C@H](CCCNC(=N)N)NC(=O)[C@H](C)NC(=O)COCCOCCNC(=O)COCCOCCNC(=O)CC[C@H](NC(=O)CC[C@H](NC(=O)CC[C@H](NC(=O)CCCCCCCCCCCCCCCCC(=O)O)C(=O)O)C(=O)O)C(=O)O)C(C)C)CSSC[C@@H](C(=O)O)NC(=O)CNC(=O)[C@H](CC(C)C)NC(=O)CNC(=O)[C@H](CO)NC(=O)[C@H](CC(C)C)NC(=O)[C@H](CO)NC(=O)CNC1=O` [compound 1422] ({C18 diacid-γGlu-γGlu-γGlu-AEEA-AEEA}-ARKYHGAQKKGVSSGCFGLPLDRIGSLSGLGC-OH; disulfide 16-32), for which the “2-Week HMWP formation at pH 4.0 (%), % relative to total peak area” value is reported as 36%.
In the case of `CC[C@H](C)[C@@H]1NC(=O)[C@H](CCCNC(=N)N)NC(=O)[C@H](CC(=O)O)NC(=O)[C@H](CC(C)C)NC(=O)[C@@H]2CCCN2C(=O)[C@H](CC(C)C)NC(=O)CNC(=O)[C@H](Cc2ccccc2)NC(=O)[C@@H](NC(=O)CNC(=O)[C@H](CCCCN)NC(=O)[C@H](CO)NC(=O)[C@H](CC(C)C)NC(=O)CNC(=O)[C@H](CCCCN)NC(=O)[C@H](CCCCN)NC(=O)[C@H](CCC(N)=O)NC(=O)[C@H](C)NC(=O)CNC(=O)[C@H](CCCCN)NC(=O)[C@H](Cc2ccc(O)cc2)NC(=O)[C@H](CCCCN)NC(=O)[C@H](CCCNC(=N)N)NC(=O)[C@H](C)NC(=O)COCCOCCNC(=O)COCCOCCNC(=O)CC[C@H](NC(=O)CC[C@H](NC(=O)CC[C@H](NC(=O)CC[C@H](NC(=O)CC[C@H](NC(=O)CCCCCCCCCCCCCCCCC(=O)O)C(=O)O)C(=O)O)C(=O)O)C(=O)O)C(=O)O)CSSC[C@@H](C(=O)O)NC(=O)CNC(=O)[C@H](CC(C)C)NC(=O)CNC(=O)[C@H](CO)NC(=O)[C@H](CC(C)C)NC(=O)[C@H](CO)NC(=O)CNC1=O` [compound 1470] ({C18 diacid-γGlu-γGlu-γGlu-γGlu-γGlu-AEEA-AEEA}-ARKYKGAQKKGLSKGCFGLPLDRIGSLSGLGC-OH; disulfide 16-32), the “2-Week HMWP formation at pH 4.0 (%), % relative to total peak area” value came to 1.75%.

Staying with this series, now noted: increase over two weeks at 37° C., pH 6.5.
As for `CC[C@H](C)[C@@H]1NC(=O)[C@H](CCCNC(=N)N)NC(=O)[C@H](CC(=O)O)NC(=O)[C@H](CC(C)C)NC(=O)[C@@H]2CCCN2C(=O)[C@H](CC(C)C)NC(=O)CNC(=O)[C@H](Cc2ccccc2)NC(=O)[C@@H](NC(=O)CNC(=O)[C@H](CCC(N)=O)NC(=O)[C@H](CO)NC(=O)[C@H](CC(C)C)NC(=O)CNC(=O)[C@H](CCCCN)NC(=O)[C@H](CCCCN)NC(=O)[C@H](CCC(N)=O)NC(=O)[C@H](C)NC(=O)CNC(=O)[C@H](CCCCN)NC(=O)[C@H](Cc2ccc(O)cc2)NC(=O)[C@H](CCCCN)NC(=O)[C@H](CCCNC(=N)N)NC(=O)[C@H](C)NC(=O)[C@H](CCC(N)=O)NC(=O)[C@@H]2CCCN2C(=O)[C@H](Cc2c[nH]cn2)NC(=O)[C@H](CCC(=O)O)NC(=O)[C@H](CCC(N)=O)NC(=O)COCCOCCNC(=O)COCCOCCNC(=O)COCCOCCNC(=O)COCCOCCNC(=O)CC[C@H](NC(=O)CC[C@H](NC(=O)CC[C@H](NC(=O)CC[C@H](NC(=O)CC[C@H](NC(=O)CC[C@H](NC(=O)CCCCCCCCCCCCCCCCC(=O)O)C(=O)O)C(=O)O)C(=O)O)C(=O)O)C(=O)O)C(=O)O)CSSC[C@@H](C(=O)O)NC(=O)CNC(=O)[C@H](CC(C)C)NC(=O)CNC(=O)[C@H](CO)NC(=O)[C@H](CC(C)C)NC(=O)[C@H](CO)NC(=O)CNC1=O` [compound 1404] ({C18 diacid-γGlu-γGlu-γGlu-γGlu-γGlu-γGlu-AEEA-AEEA-AEEA-AEEA}-QEHPQARKYKGAQKKGLSQGCFGLPLDRIGSLSGLGC-OH; disulfide 21-37), the “2-Week HMWP formation at pH 6.5 (%), % relative to total peak area” value amounted to 1.8%.
For `CC[C@H](C)[C@@H]1NC(=O)[C@H](CCCNC(=N)N)NC(=O)[C@H](CC(=O)O)NC(=O)[C@H](CC(C)C)NC(=O)[C@@H]2CCCN2C(=O)[C@H](CC(C)C)NC(=O)CNC(=O)[C@H](Cc2ccccc2)NC(=O)[C@@H](NC(=O)CNC(=O)[C@H](CCC(N)=O)NC(=O)[C@H](CO)NC(=O)[C@H](CC(C)C)NC(=O)CNC(=O)[C@H](CCCCN)NC(=O)[C@H](CCCCN)NC(=O)[C@H](CCC(N)=O)NC(=O)[C@H](C)NC(=O)CNC(=O)[C@H](CCCCN)NC(=O)[C@H](Cc2ccc(O)cc2)NC(=O)[C@H](CCCCN)NC(=O)[C@H](CCCNC(=N)N)NC(=O)[C@H](C)NC(=O)[C@H](CCC(N)=O)NC(=O)[C@@H]2CCCN2C(=O)[C@H](Cc2c[nH]cn2)NC(=O)[C@H](CCC(=O)O)NC(=O)[C@H](CCC(N)=O)NC(=O)COCCOCCNC(=O)COCCOCCNC(=O)COCCOCCNC(=O)COCCOCCNC(=O)CC[C@H](NC(=O)CC[C@H](NC(=O)CC[C@H](NC(=O)CC[C@H](NC(=O)CC[C@H](NC(=O)CCCCCCCCCCCCCCCCC(=O)O)C(=O)O)C(=O)O)C(=O)O)C(=O)O)C(=O)O)CSSC[C@@H](C(=O)O)NC(=O)CNC(=O)[C@H](CC(C)C)NC(=O)CNC(=O)[C@H](CO)NC(=O)[C@H](CC(C)C)NC(=O)[C@H](CO)NC(=O)CNC1=O` [compound 1406] ({C18 diacid-γGlu-γGlu-γGlu-γGlu-γGlu-AEEA-AEEA-AEEA-AEEA}-QEHPQARKYKGAQKKGLSQGCFGLPLDRIGSLSGLGC-OH; disulfide 21-37), the “2-Week HMWP formation at pH 6.5 (%), % relative to total peak area” value was 2.77%.
Consider `CC[C@H](C)[C@@H]1NC(=O)[C@H](CCCNC(=N)N)NC(=O)[C@H](CC(=O)O)NC(=O)[C@H](CC(C)C)NC(=O)[C@@H]2CCCN2C(=O)[C@H](CC(C)C)NC(=O)CNC(=O)[C@H](Cc2ccccc2)NC(=O)[C@@H](NC(=O)CNC(=O)[C@H](CCC(N)=O)NC(=O)[C@H](CO)NC(=O)CNC(=O)CNC(=O)[C@H](CCCCN)NC(=O)[C@H](Cc2c[nH]cn2)NC(=O)[C@H](CCC(N)=O)NC(=O)[C@H](C)NC(=O)CNC(=O)[C@H](CCC(=O)O)NC(=O)[C@H](Cc2ccc(O)cc2)NC(=O)[C@H](CCCCN)NC(=O)[C@H](CCCNC(=N)N)NC(=O)[C@H](C)NC(=O)COCCOCCNC(=O)COCCOCCNC(=O)COCCOCCNC(=O)COCCOCCNC(=O)CC[C@H](NC(=O)CC[C@H](NC(=O)CCCCCCCCCCCCCCCCC(=O)O)C(=O)O)C(=O)O)CSSC[C@@H](C(=O)O)NC(=O)CNC(=O)[C@H](CC(C)C)NC(=O)CNC(=O)[C@H](CO)NC(=O)[C@H](CC(C)C)NC(=O)[C@H](CO)NC(=O)CNC1=O` [compound 1432] ({C18 diacid-γGlu-γGlu-AEEA-AEEA-AEEA-AEEA}-ARKYEGAQHKGGSQGCFGLPLDRIGSLSGLGC-OH; disulfide 16-32), for which the “2-Week HMWP formation at pH 6.5 (%), % relative to total peak area” value was determined as 2.89%.
On to `CC[C@H](C)[C@@H]1NC(=O)[C@H](CCCNC(=N)N)NC(=O)[C@H](CC(=O)O)NC(=O)[C@H](CC(C)C)NC(=O)[C@@H]2CCCN2C(=O)[C@H](CC(C)C)NC(=O)CNC(=O)[C@H](Cc2ccccc2)NC(=O)[C@@H](NC(=O)CNC(=O)[C@H](CCC(N)=O)NC(=O)[C@H](CO)NC(=O)[C@H](CC(C)C)NC(=O)CNC(=O)[C@H](CCCCN)NC(=O)[C@H](CCCCN)NC(=O)[C@H](CCC(N)=O)NC(=O)[C@H](C)NC(=O)CNC(=O)[C@H](CCCCN)NC(=O)[C@H](Cc2ccc(O)cc2)NC(=O)[C@H](CCCCN)NC(=O)[C@H](CCCNC(=N)N)NC(=O)[C@H](C)NC(=O)COCCOCCNC(=O)COCCOCCNC(=O)CC[C@H](NC(=O)CC[C@H](NC(=O)CC[C@H](NC(=O)CC[C@H](NC(=O)CC[C@H](NC(=O)CCCCCCCCCCCCCCCCC(=O)O)C(=O)O)C(=O)O)C(=O)O)C(=O)O)C(=O)O)CSSC[C@@H](C(=O)O)NC(=O)CNC(=O)[C@H](CC(C)C)NC(=O)CNC(=O)[C@H](CO)NC(=O)[C@H](CC(C)C)NC(=O)[C@H](CO)NC(=O)CNC1=O` [compound 1453] ({C18 diacid-γGlu-γGlu-γGlu-γGlu-γGlu-AEEA-AEEA}-ARKYKGAQKKGLSQGCFGLPLDRIGSLSGLGC-OH; disulfide 16-32), for which the “2-Week HMWP formation at pH 6.5 (%), % relative to total peak area” value is reported as 3.94%.
Regarding `CC[C@H](C)[C@@H]1NC(=O)[C@H](CCCNC(=N)N)NC(=O)[C@H](CC(=O)O)NC(=O)[C@H](CC(C)C)NC(=O)[C@@H]2CCCN2C(=O)[C@H](CC(C)C)NC(=O)CNC(=O)[C@H](Cc2ccccc2)NC(=O)[C@@H](NC(=O)CNC(=O)[C@H](CCC(N)=O)NC(=O)[C@H](CO)NC(=O)[C@H](CO)NC(=O)CNC(=O)[C@H](CCCCN)NC(=O)[C@H](CCCCN)NC(=O)[C@H](CCC(N)=O)NC(=O)[C@H](C)NC(=O)CNC(=O)[C@@H]2CCCN2C(=O)[C@H](C)NC(=O)[C@H](CCC(N)=O)NC(=O)CNC(=O)[C@@H]2CCCN2C(=O)[C@H](C)NC(=O)[C@H](CCC(N)=O)NC(=O)CNC(=O)[C@@H]2CCCN2C(=O)[C@H](C)NC(=O)[C@H](CCC(N)=O)NC(=O)CNC(=O)COCCOCCNC(=O)COCCOCCNC(=O)CC[C@H](NC(=O)CCCCCCCCCCCCCCCCC(=O)O)C(=O)O)CSSC[C@@H](C(=O)O)NC(=O)CNC(=O)[C@H](CC(C)C)NC(=O)CNC(=O)[C@H](CO)NC(=O)[C@H](CC(C)C)NC(=O)[C@H](CO)NC(=O)CNC1=O` [compound 1457] ({C18 diacid-γGlu-AEEA-AEEA}-GQAPGQAPGQAPGAQKKGSSQGCFGLPLDRIGSLSGLGC-OH; disulfide 23-39), the “2-Week HMWP formation at pH 6.5 (%), % relative to total peak area” value turned out to be 3.24%.
